Test results published in PubChem BioAssay AID1918952 (Molecular Pharmacology Branch, DTP, NCI, 2023).

Tested on: LG0703-F948-PDC complex spheroid viability
Assay: Anticancer human tumor LG0703-F948-PDC patient-derived lung adenocarcinoma cell line growth inhibition
Conditions: for IC50: curve of first compound; for viability, T/C: stronger effect = lower value
In short: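 Drug combinations with the LSD1 inhibitor iadademstat tested on tumor cells co-cultured as spheroids with endothelial cells and mesenchymal stem cells. Concentrations descended in half-log increments from clinical Cmax or 10 microM.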

[1] = second compound 0.1 µM, first compound 0.00316 µM
[2] = second compound 0.1 µM, first compound 0.01 µM
[3] = second compound 0.1 µM, first compound 0.0316 µM
[4] = second compound 0.1 µM, first compound 0.1 µM
[5] = second compound 0.316 µM, first compound 0.00316 µM
[6] = second compound 0.316 µM, first compound 0.01 µM
[7] = second compound 0.316 µM, first compound 0.0316 µM
[8] = second compound 0.316 µM, first compound 0.1 µM
[9] = second compound 1 µM, first compound 0.00316 µM
[10] = second compound 1 µM, first compound 0.01 µM
[11] = second compound 1 µM, first compound 0.0316 µM
[12] = second compound 1 µM, first compound 0.1 µM
[13] = second compound 3.16 µM, first compound 0.00316 µM
[14] = second compound 3.16 µM, first compound 0.01 µM
[15] = second compound 3.16 µM, first compound 0.0316 µM
[16] = second compound 3.16 µM, first compound 0.1 µM
[17] = second compound 10 µM, first compound 0.00316 µM
[18] = second compound 10 µM, first compound 0.01 µM
[19] = second compound 10 µM, first compound 0.0316 µM
[20] = second compound 10 µM, first compound 0.1 µM
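Further: spheroids exposed to agents for seven days before readout.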
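Wherever viability, T/C is given: 100% = DMSO vehicle control wells as normalization base.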

COc1cc(Nc2ncc3c(n2)-c2ccc(Cl)cc2C(c2c(F)cccc2OC)=NC3)ccc1C(=O)O + NC1CC1c1ccc(-c2cccc(O)c2)cc1
IC50 (second compound 0.1 µM): 0.199 µM
IC50 (second compound 0.316 µM): 0.177 µM
IC50 (second compound 1 µM): 0.198 µM
IC50 (second compound 3.16 µM): 0.188 µM
IC50 (second compound 10 µM): 0.181 µM
viability, T/C [1]: 91.5%
viability, T/C [2]: 85.6%
viability, T/C [3]: 91.6%
viability, T/C [4]: 76.1%
viability, T/C (second compound 0.1 µM, first compound 0.316 µM): 32.1%
viability, T/C (second compound 0.1 µM, first compound 1 µM): 3.58%
viability, T/C [5]: 95.3%
viability, T/C [6]: 93.8%
viability, T/C [7]: 80.8%
viability, T/C [8]: 67.6%
viability, T/C (second compound 0.316 µM, first compound 0.316 µM): 33.5%
viability, T/C (second compound 0.316 µM, first compound 1 µM): 3.78%
viability, T/C [9]: 106%
viability, T/C [10]: 100%
viability, T/C [11]: 85.6%
viability, T/C [12]: 70.5%
viability, T/C (second compound 1 µM, first compound 0.316 µM): 36.3%
viability, T/C (second compound 1 µM, first compound 1 µM): 3.36%
viability, T/C [13]: 95.5%
viability, T/C [14]: 111%
viability, T/C [15]: 94.2%
viability, T/C [16]: 70.5%
viability, T/C (second compound 3.16 µM, first compound 0.316 µM): 33.1%
viability, T/C (second compound 3.16 µM, first compound 1 µM): 4.2%
viability, T/C [17]: 113%
viability, T/C [18]: 97.6%
viability, T/C [19]: 94.1%
viability, T/C [20]: 64.8%
viability, T/C (second compound 10 µM, first compound 0.316 µM): 34.8%
viability, T/C (second compound 10 µM, first compound 1 µM): 6.35%

Cn1ncnc1C1c2n[nH]c(=O)c3cc(F)cc(c23)NC1c1ccc(F)cc1 (stereo not given) + NC1CC1c1ccc(-c2cccc(O)c2)cc1
IC50 (second compound 0.1 µM): > 0.1 µM
IC50 (second compound 0.316 µM): > 0.1 µM
IC50 (second compound 1 µM): > 0.1 µM
IC50 (second compound 3.16 µM): > 0.1 µM
IC50 (second compound 10 µM): > 0.1 µM
viability, T/C (second compound 0.1 µM, first compound 0.000316 µM): 105%
viability, T/C (second compound 0.1 µM, first compound 0.001 µM): 114%
viability, T/C [1]: 94.9%
viability, T/C [2]: 100%
viability, T/C [3]: 108%
viability, T/C [4]: 125%
viability, T/C (second compound 0.316 µM, first compound 0.000316 µM): 113%
viability, T/C (second compound 0.316 µM, first compound 0.001 µM): 114%
viability, T/C [5]: 117%
viability, T/C [6]: 100%
viability, T/C [7]: 93.7%
viability, T/C [8]: 105%
viability, T/C (second compound 1 µM, first compound 0.000316 µM): 102%
viability, T/C (second compound 1 µM, first compound 0.001 µM): 112%
viability, T/C [9]: 120%
viability, T/C [10]: 109%
viability, T/C [11]: 111%
viability, T/C [12]: 106%
viability, T/C (second compound 3.16 µM, first compound 0.000316 µM): 119%
viability, T/C (second compound 3.16 µM, first compound 0.001 µM): 123%
viability, T/C [13]: 101%
viability, T/C [14]: 107%
viability, T/C [15]: 114%
viability, T/C [16]: 124%
viability, T/C (second compound 10 µM, first compound 0.000316 µM): 108%
viability, T/C (second compound 10 µM, first compound 0.001 µM): 101%
viability, T/C [17]: 104%
viability, T/C [18]: 100%
viability, T/C [19]: 100%
viability, T/C [20]: 99.8%

NS(=O)(=O)OCC1CC(n2ccc3c(NC4CCc5ccccc54)ncnc32)CC1O (stereo not given) + NC1CC1c1ccc(-c2cccc(O)c2)cc1
IC50 (second compound 0.1 µM): 0.683 µM
IC50 (second compound 0.316 µM): 0.582 µM
IC50 (second compound 1 µM): 0.559 µM
IC50 (second compound 3.16 µM): 0.559 µM
IC50 (second compound 10 µM): 0.302 µM
viability, T/C (second compound 0.1 µM, first compound 0.00949 µM): 101%
viability, T/C (second compound 0.1 µM, first compound 0.03 µM): 113%
viability, T/C (second compound 0.1 µM, first compound 0.0949 µM): 104%
viability, T/C (second compound 0.1 µM, first compound 0.3 µM): 75.2%
viability, T/C (second compound 0.1 µM, first compound 0.949 µM): 40.9%
viability, T/C (second compound 0.1 µM, first compound 3 µM): 19%
viability, T/C (second compound 0.316 µM, first compound 0.00949 µM): 118%
viability, T/C (second compound 0.316 µM, first compound 0.03 µM): 104%
viability, T/C (second compound 0.316 µM, first compound 0.0949 µM): 105%
viability, T/C (second compound 0.316 µM, first compound 0.3 µM): 73.9%
viability, T/C (second compound 0.316 µM, first compound 0.949 µM): 31.9%
viability, T/C (second compound 0.316 µM, first compound 3 µM): 21.6%
viability, T/C (second compound 1 µM, first compound 0.00949 µM): 107%
viability, T/C (second compound 1 µM, first compound 0.03 µM): 117%
viability, T/C (second compound 1 µM, first compound 0.0949 µM): 103%
viability, T/C (second compound 1 µM, first compound 0.3 µM): 68%
viability, T/C (second compound 1 µM, first compound 0.949 µM): 35.6%
viability, T/C (second compound 1 µM, first compound 3 µM): 18.6%
viability, T/C (second compound 3.16 µM, first compound 0.00949 µM): 110%
viability, T/C (second compound 3.16 µM, first compound 0.03 µM): 105%
viability, T/C (second compound 3.16 µM, first compound 0.0949 µM): 98.4%
viability, T/C (second compound 3.16 µM, first compound 0.3 µM): 70.4%
viability, T/C (second compound 3.16 µM, first compound 0.949 µM): 32.6%
viability, T/C (second compound 3.16 µM, first compound 3 µM): 16%
viability, T/C (second compound 10 µM, first compound 0.00949 µM): 107%
viability, T/C (second compound 10 µM, first compound 0.03 µM): 104%
viability, T/C (second compound 10 µM, first compound 0.0949 µM): 81.2%
viability, T/C (second compound 10 µM, first compound 0.3 µM): 50.8%
viability, T/C (second compound 10 µM, first compound 0.949 µM): 23.8%
viability, T/C (second compound 10 µM, first compound 3 µM): 12.6%
